According to patent publication US8772237B2, “Compositions and methods for counteracting effects of reactive oxygen species and free radicals” (Ischemix, Inc., priority 1999, dated 2014):
Ends that are not written are not given here.

Tested on: transcription factor AP-1
Test: Electrophoretic mobility shift assay (EMSA) for AP-1 activation in primary rat neurons / cortical cultures
Format: cell-based
Method: Nuclear extracts for electrophoretic mobility shift assays (EMSAs) were prepared as described previously (Adams et al., J. Leukocyte Biol., 62: 865-873 (1997)) using 1.0-2.0×10^7 cells per sample. All buffers were freshly supplemented with dithiothreitol (DTT, 0.5 mM), protease inhibitors: PMSF (0.5 mM), chymostatin, peptstatin-A, aprotinin, antipain, leupeptin (each at 1 μg/ml), and phosphatase inhibitors: NaF (10 mM), ZnCl2 (1 mM), sodium orthovanadate (1 mM), and sodium pyrophosphate (5 mM). Aliquots of the final dialyzates were stored at −80° C. and discarded after use.
AP-1 transcription factor activation was assayed using an electrophoretic mobility shift assay (EMSA), as described by Adams et al., J. Leukoc. Biol., 62:865-873 (1997)). Cultures of primary rat neurons (Cornell-Bell et al., Cell Calcium, 12: 185-204 (1991)) were stimulated for 3 hours with various concentrations (0, 1, 10, 100 ng/ml) of peptide CMX-9236. Nuclear extracts prepared as described above were separated by gel electophoresis on non-denaturing gels and subjected to the EMSA procedure. This EMSA used an AP-1 synthetic duplex probe (Angel, P., 1987, Cell 49:729-739) having the sequence 5′-[…] (SEQ ID NO:33) and its antisense copy (complement strand), which were end-labeled with P^32 using polynucleotide kinase and (γ-P^32)-ATP. For the EMSA reaction, the labeled probe (0.5 pmol) was mixed with 3 μg of nuclear extract protein in a solution containing 10 mM Tris-HCl, pH 7.5, 50 mM NaCl, 1 mM EDTA, 1 mM dithiothreitol, 5% glycerol, 0.02% β-mercaptoethanol, and 1 μg of poly-dI/dC (Pharmacia). Reaction mixtures were incubated at 25° C. for 20 minutes to allow complete complex formation by the duplex with its appropriate AP-1 protein. The mixture was then electrophoresed under non-denaturing conditions through 4% polyacrylamide gels in 0.5×TBE buffer (45 mM Trisma base, 45 mM boric acid, 1 mM EDTA). The gels were dried on 3 mm paper. Bands were visualized by autoradiography at −80° C. with one intensifying screen and quantified by laser densitometry. The upregulation of AP-1 and the activation and upregulation process of AP-1 was compared to control cultures.
Primary cortical cell cultures were grown to confluence and used in in vitro cultures for determining the effects of various representative peptide compounds on upregulation of AP-1. […] Extracts were prepared from the nuclei isolated from the primary culture homogenates, purified, and analyzed for the presence of specific transcription factors using the electrophoretic mobility shift assay (EMSA) method. The binding of ^32P-labeled duplex DNA probes specific for activator protein-1 (AP-1) or nuclear factor κB (NF-κB) was analyzed and quantified by autoradiography. After a 3-hour incubation of the cultures with 1 ng/ml of the peptide CMX-9236 there was a 15-fold increase of AP-1 relative to […] control cultures. […] Thus, a small peptide compound that is less than 20 amino acids long can simulate the properties of large growth factors such as NGF and BDNF, which exist as dimers of protein chains with molecular weights of 13,259 and 13,500, respectively.

fold-increase of AP-1 (binding of DNA duplex probe) (100 ng/ml, 3 hours): 60 fold
Sequence: KKDGDGDFAIDAPE [CMX-9236, uncapped peptide]
fold-increase of AP-1 (1 ng/ml, 3-hour incubation): 15 fold
